According to patent US20050107386A1, “Methods of treating diseases and disorders by targeting multiple kinases” (priority 2003, published 2005):

How the values were obtained:
Assay type in all cases: biochemical
Settings in all cases: 3 μM; percent of control kinase activity
CaMKIV(h) = CaMKIV(h) (Homo sapiens, UniProt Q16566); experiment: CaMKIV(h) kinase assay
Description: (§1) Six compounds (presumptive single agents) were tested against a panel of 50 kinases. The results are presented in Table 2; numbers for each kinase indicate the percent of control kinase activity in the presence of a 3μM concentration of the indicated agent.
(§2) Agents that target two or more different kinases are useful in the methods of the invention as described elsewhere herein. Such compounds may be identified, and their effect on certain kinases may be identified, using the assays briefly described below in Examples 4-83. Each of these assays was carried out as described in Davies et al., Biochem. J., 351:95-105 (2000). All assays were carried out at 10 μM ATP unless otherwise noted.
(§3) In a final reaction volume of 25 μl, CaMKIV (h) (5-10 mU) is incubated with 40 mM Hepes pH 7.4, 5 mM CaCl2, 30 μg/ml calmodulin, 30 μM […] (SEQ ID NO:11), 10 mM MgAcetate and [γ-^33P-ATP] (specific activity approx. 500 cpm/pmol, concentration as required). The reaction is initiated by the addition of Mg^2+ [γ-^33P-ATP]. After incubation for 40 minutes at room temperature, the reaction is stopped by the addition of 5 μl of a 3% phosphoric acid solution. 10 μl of the reaction is then spotted onto a P30 filtermat and washed three times for 5 minutes in 75 mM phosphoric acid and once in methanol prior to drying and scintillation counting.

CDK6/cyclinD3(h) = CDK6/cyclinD3(h) (Homo sapiens, UniProt Q00534); experiment: CDK6/cyclinD3(h) kinase assay
Description: as §1, §2
In a final reaction volume of 25 μl, CDK6/cyclinD3 (h) (5-10 mU) is incubated with 8 mM MOPS pH 7.0, 0.2 mM EDTA, 0.1 mg/ml histone H1, 10 mM MgAcetate and [γ-33p-ATP] (specific activity approx. 500 cpm/pmol, concentration as required). The reaction is initiated by the addition of Mg^2+ [γ-33P-ATP]. After incubation for 40 minutes at room temperature, the reaction is stopped by the addition of 5 μl of a 3% phosphoric acid solution. 10 μl of the reaction is then spotted onto a P30 filtermat and washed three times for 5 minutes in 75 mM phosphoric acid and once in methanol prior to drying and scintillation counting.

IGF-1R(h) = IGF-1R(h) (Homo sapiens, UniProt P08069); experiment: IGF-1R(h) kinase assay
Description: as §1, §2
as §3, with “μl, IGF-IR” for “μl, CaMKIV”, “with 50” for “with 40”, “mM Tris” for “mM Hepes”, “pH 7.5, 0.1” for “pH 7.4, 5”, “mM EGTA, 0.1 mM NaVanadate, 0.1% β-mercaptoethanol, 250” for “mM CaCl2, 30 μg/ml calmodulin, 30”, “ID NO:16), 10 mM MnCl2,” for “ID NO:11),”

Syk(h) = Syk(h) (Homo sapiens, UniProt P43405); experiment: Syk(h) kinase assay
Description: as §1, §2
In a final reaction volume of 25 μl, Syk (h) (5-10 mU) is incubated with 50 mM Tris pH 7.5, 0.1 mM EGTA, 0.1 mM NaVanadate, 0.1% β-mercaptoethanol, 0.1 mg/ml poly(Glu, Tyr) 4:1, 10 mM MgAcetate and [γ-^33P-ATP] (specific activity approx. 500 cpm/pmol, concentration as required). The reaction is initiated by the addition of Mg^2+ [γ-^33P-ATP]. After incubation for 40 minutes at room temperature, the reaction is stopped by the addition of 5 μl of a 3% phosphoric acid solution. 10 μl of the reaction is then spotted onto a Filtermat A and washed three times for 5 minutes in 75 mM phosphoric acid and once in methanol prior to drying and scintillation counting.

CHK1(h) = target: T1, CHK1(h) (Homo sapiens, UniProt O14757); experiment: CHK1(h) kinase assay
T1 sequence (O14757 1-476): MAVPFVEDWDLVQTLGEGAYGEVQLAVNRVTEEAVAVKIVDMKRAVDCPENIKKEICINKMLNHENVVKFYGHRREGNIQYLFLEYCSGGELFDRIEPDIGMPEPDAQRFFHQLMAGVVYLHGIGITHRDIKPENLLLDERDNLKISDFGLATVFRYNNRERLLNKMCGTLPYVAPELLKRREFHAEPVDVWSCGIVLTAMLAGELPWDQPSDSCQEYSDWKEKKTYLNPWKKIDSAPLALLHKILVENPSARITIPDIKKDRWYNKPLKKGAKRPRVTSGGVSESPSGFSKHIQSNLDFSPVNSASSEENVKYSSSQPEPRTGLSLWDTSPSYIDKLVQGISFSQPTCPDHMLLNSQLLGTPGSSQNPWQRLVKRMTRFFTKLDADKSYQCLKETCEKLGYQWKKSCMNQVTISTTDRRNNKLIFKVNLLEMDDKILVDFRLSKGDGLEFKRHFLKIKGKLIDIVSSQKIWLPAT
Description: as §1, §2
as §3, with “μl, CHK1(h)” for “μl, CaMKIV (h)”, “with 8” for “with 40”, “mM MOPS” for “mM Hepes”, “pH 7.0,0.2” for “pH 7.4, 5”, “mM EDTA, 200” for “mM CaCl2, 30 μg/ml calmodulin, 30”, “ID NO:5),” for “ID NO:11),”

Lyn(h) = Lyn(h) (Homo sapiens, UniProt P07948); experiment: Lyn(h) kinase assay
CHK2(h) = CHK2(h) (Homo sapiens, UniProt O96017); experiment: CHK2(h) kinase assay
Description: as §1, §2
as §3, with “μl, CHK2” for “μl, CaMKIV”, “with 8” for “with 40”, “mM MOPS” for “mM Hepes”, “pH 7.0,0.2” for “pH 7.4, 5”, “mM EDTA, 200” for “mM CaCl2, 30 μg/ml calmodulin, 30”, “ID NO:5),” for “ID NO:11),”

Sequence of IGF-1R(h) (P08069 31-1367): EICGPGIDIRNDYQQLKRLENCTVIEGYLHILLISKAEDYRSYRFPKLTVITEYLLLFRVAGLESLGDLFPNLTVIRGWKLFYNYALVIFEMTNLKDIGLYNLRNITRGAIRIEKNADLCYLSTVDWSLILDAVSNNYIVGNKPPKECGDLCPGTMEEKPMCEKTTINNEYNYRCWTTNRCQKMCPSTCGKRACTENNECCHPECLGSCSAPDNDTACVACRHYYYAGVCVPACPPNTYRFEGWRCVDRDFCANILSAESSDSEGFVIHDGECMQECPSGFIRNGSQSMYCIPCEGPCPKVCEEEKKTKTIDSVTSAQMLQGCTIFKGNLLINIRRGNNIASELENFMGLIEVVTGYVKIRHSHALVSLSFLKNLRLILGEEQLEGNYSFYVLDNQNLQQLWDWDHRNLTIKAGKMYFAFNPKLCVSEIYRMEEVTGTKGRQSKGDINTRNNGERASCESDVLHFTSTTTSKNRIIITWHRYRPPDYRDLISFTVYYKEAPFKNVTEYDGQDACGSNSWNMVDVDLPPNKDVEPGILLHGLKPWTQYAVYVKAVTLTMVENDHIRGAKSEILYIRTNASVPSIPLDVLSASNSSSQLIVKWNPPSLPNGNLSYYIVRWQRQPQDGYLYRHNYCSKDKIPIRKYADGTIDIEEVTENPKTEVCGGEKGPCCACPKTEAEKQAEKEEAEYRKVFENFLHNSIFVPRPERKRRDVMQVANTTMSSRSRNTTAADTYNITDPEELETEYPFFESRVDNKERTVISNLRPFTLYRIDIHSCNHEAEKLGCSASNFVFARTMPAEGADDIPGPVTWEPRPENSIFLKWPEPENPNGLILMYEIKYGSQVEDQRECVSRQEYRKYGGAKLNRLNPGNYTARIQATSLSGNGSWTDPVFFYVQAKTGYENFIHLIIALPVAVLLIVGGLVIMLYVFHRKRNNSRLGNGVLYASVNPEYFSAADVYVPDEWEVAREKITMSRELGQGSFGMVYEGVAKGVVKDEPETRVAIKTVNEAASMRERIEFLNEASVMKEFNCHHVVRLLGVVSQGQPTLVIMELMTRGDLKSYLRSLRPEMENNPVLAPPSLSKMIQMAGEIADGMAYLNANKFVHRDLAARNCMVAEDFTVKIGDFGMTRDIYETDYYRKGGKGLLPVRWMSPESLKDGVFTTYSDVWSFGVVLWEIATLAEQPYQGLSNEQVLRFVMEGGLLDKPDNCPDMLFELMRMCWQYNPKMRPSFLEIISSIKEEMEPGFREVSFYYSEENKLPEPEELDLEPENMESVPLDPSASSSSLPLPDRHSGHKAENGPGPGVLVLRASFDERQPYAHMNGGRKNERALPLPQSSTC
Sequence of CDK6/cyclinD3(h) (Q00534 whole entry): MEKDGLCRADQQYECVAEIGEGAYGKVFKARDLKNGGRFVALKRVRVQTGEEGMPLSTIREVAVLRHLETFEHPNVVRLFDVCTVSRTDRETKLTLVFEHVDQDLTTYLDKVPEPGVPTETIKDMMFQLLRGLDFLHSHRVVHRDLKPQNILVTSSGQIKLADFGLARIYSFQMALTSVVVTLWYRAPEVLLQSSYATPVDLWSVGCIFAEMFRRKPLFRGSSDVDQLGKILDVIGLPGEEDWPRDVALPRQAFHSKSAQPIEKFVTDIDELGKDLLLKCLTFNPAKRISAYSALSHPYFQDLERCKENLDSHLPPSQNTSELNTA
Sequence of CDK6/cyclinD3(h) (P30281 whole entry partner): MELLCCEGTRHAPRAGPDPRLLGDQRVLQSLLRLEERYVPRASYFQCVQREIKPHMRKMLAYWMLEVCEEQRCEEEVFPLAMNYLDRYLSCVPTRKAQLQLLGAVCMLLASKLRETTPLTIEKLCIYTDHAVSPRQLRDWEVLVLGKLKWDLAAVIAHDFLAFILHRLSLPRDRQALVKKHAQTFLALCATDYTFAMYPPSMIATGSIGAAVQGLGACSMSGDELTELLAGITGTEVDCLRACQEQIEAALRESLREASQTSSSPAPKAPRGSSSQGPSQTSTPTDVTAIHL
Sequence of CHK2(h) (O96017 whole entry): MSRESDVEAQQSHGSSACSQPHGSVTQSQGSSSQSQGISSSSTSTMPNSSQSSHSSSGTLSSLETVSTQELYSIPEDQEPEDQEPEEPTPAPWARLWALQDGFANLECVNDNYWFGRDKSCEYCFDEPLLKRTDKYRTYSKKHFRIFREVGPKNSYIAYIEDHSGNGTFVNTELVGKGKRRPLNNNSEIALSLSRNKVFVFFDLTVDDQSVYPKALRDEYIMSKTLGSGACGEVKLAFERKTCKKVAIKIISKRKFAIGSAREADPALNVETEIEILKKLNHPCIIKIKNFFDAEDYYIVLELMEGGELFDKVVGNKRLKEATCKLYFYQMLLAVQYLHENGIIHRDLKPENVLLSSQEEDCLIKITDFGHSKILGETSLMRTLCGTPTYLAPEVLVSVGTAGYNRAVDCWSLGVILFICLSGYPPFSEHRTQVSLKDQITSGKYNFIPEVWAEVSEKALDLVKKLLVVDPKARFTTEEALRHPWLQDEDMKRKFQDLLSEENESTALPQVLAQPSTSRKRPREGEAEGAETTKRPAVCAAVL
Sequence of Lyn(h) (P07948 2-512 limits assumed): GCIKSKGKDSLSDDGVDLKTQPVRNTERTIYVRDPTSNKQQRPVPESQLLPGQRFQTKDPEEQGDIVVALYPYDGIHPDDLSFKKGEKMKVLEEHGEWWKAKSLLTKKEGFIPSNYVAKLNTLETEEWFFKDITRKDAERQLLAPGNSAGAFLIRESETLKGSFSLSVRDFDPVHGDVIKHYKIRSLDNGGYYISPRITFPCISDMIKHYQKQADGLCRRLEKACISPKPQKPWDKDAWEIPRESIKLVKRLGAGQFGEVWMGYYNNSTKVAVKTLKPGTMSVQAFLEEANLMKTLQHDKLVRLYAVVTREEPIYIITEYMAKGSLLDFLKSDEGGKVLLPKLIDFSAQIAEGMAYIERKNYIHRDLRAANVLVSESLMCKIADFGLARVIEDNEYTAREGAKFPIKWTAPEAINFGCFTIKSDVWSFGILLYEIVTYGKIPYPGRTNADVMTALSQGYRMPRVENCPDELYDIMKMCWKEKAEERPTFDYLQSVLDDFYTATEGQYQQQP

| Compound | Inhibitory activity (% of control), CaMKIV(h) (CaMKIV(h)) | Inhibitory activity (% of control), CDK6/cyclinD3(h) (CDK6/cyclinD3(h)) | Inhibitory activity (% of control), IGF-1R(h) (IGF-1R(h)) | Inhibitory activity (% of control), Syk(h) (Syk(h)) | Inhibitory activity (% of control), CHK1(h) (CHK1(h)) | Inhibitory activity (% of control), Lyn(h) (Lyn(h)) | Inhibitory activity (% of control), CHK2(h) (CHK2(h)) |
| --- | --- | --- | --- | --- | --- | --- | --- |
| COc1ccc2cc(-c3n[nH]c4ccc(-c5n[nH]c(CN6CCOCC6)n5)cc34)ccc2c1 [CC001, 3-(6-Methoxynaphthalen-2-yl)-5-(5-Morpholin-4-Ylmethyl-1H-[1,2,4]Triazol-3-yl)-1H-Indazole] | 82 % of control | 82 % of control | 92 % of control | 26 % of control | 36 % of control | 5 % of control | 2 % of control |
| CC(C)Cc1nc(-c2ccc3[nH]nc(-c4ccc5cc(OCCN6CCCC6)ccc5c4)c3c2)n[nH]1 [CC002, 5-(5-Isobutyl-1H-[1,2,4]Triazol-3-yl)-3-[6-(2-Pyrrolidin-1-yl-Ethoxy)-Naphthalen-2-yl]-1H-Indazole] | 60 % of control | 59 % of control | 55 % of control | 14 % of control | 12 % of control | 2 % of control | 1 % of control |
| CC(C)(C)Cc1nc(-c2ccc3[nH]nc(-c4ccc5cc(OCc6ccccn6)ccc5c4)c3c2)n[nH]1 [CC004, 5-[5-(2,2-Dimethyl-propyl)-1H-[1,2,4]triazol-3-yl]-3-[6-(pyridine-2-ylmethoxy)-naphthalen-2-yl]-1H-indazole] | 80 % of control | 80 % of control | 96 % of control | 47 % of control | 64 % of control | 62 % of control | 7 % of control |
| CCN1CCC[C@H]1COc1ccc2cc(-c3n[nH]c4ccc(-c5nc(CC(C)(C)C)n[nH]5)cc34)ccc2c1 [CC005, 2-[((2s)-1-ethylpyrrolidin-2-yl)methoxy]-6-{5-[3-(2,2-Dimethylpropyl)(1H-1,2,4,-triazol-5-yl)](1H-indazol-3-yl)}naphthalene] | 22 % of control | 29 % of control | 58 % of control | 15 % of control | 6 % of control | 2 % of control | 1 % of control |
| Fc1ccc(-c2n[nH]c3ccc(-c4n[nH]c(C5CCCC5)n4)cc23)cc1 [CC006, 5-(5-Cyclopentyl-1H-[1,2,4]triazol-3-yl)-3-(4-fluoro-phenyl)-1H-indazole, reference compound] | 95 % of control | 63 % of control | 65 % of control | 46 % of control | 70 % of control | 23 % of control | 20 % of control |
| O=C(NC1CCCC1)c1cccc(-c2n[nH]c3ccc(-c4nc[nH]n4)cc23)c1 [CC007, 3-(5-(1H-1,2,4-triazol-3-yl)(1H-indazol-3-yl))phenyl-N-cyclopentylcarboxamide, reference compound] | 86 % of control | 87 % of control | 88 % of control | 51 % of control | 90 % of control | 61 % of control | 6 % of control |
